Where two headings read alike, the source gives them in different places.

The conditions of data set [1]: by addition of inorganic alkali such as NaOH and KOH.
The conditions of data set [2]: ammonia present at an excessive amount in mole ratio to methionine; 5-50° C.; FIG. 1. The text has this: About 20 wt % of methionine also can be dissolved in water by addition of inorganic alkali such as NaOH and KOH, while in this case it is required to neutralize with the use of acid to obtain a product in the form of salt-free solid of methionine, leading to a problem that an additional operation to remove a lot of inorganic salt waste generated from the neutralization is required.

For data set [3] the following is noted: cited from earlier work.

As to `CSCC[C@H](N)C(=O)O` (racemic) [methionine], in data set [1], the “amount of methionine that can be dissolved in water” value is on record as “About 20 wt %”. The solubility of methionine result in data set [2] is “increases”. In addition, the water solubility in data set [3] (at 25° C.) is 3.38 g/100 g·H2O; in data set [3] (at 50° C.), 6.07 g/100 g·H2O.

The record behind these values is patent US20050176115A1, “Process for the production of methionine” (Nippon Soda Co., Ltd., priority 2002, published 2005).
